From ChEMBL document CHEMBL5233236, “p62 as a therapeutic target for tumor” (Eur J Med Chem, 2020)
Each block holds one molecule with its values, some of them ahead of it.

Key:
[1] = Inhibition of full length human GST tagged LC3 (1 to 120 residues)/p62 (unknown origin) interaction expressed in Escherichia coli BL21 Star (DE3) incubated for 2 hrs by SPR based competitive binding assay
MM1.S [2] = test: Inhibition of cell growth in human MM1.S cells; assay type: functional
MM1.S [3] = test: Inhibition of cell growth in human MM1.S cells incubated for 48 hrs by MTT assay; assay type: functional, cell-based

IC50 (MM1.S [2]): 840 nM
SMILES: Fc1ccc(COc2ccc(CNCC3CCCCC3)cc2OCc2ccc(F)cc2F)c(F)c1

IC50 (MM1.S [3]): 6190 nM
SMILES: OCCNCc1ccc(OCc2ccccc2)c(OCc2ccccc2)c1

IC50 (MM1.S [3]): 4600 nM
SMILES: OCCNCc1ccc(OCc2ccc(F)cc2)c(OCc2ccc(F)cc2)c1

The next lines start with the molecule.

SMILES: O=C(O)CSc1cc(NS(=O)(=O)c2ccc(Br)cc2)c2ccccc2c1O
IC50 [1]: 900 nM

SMILES: O=C1CC(=O)c2ccc3c4c(ccc1c24)C(=O)CC3=O
IC50 [1]: 2000 nM
